Literature values as cited in the CATMoS acute toxicity set (Mansouri et al. 2021).
Several values for one entry are separate records, joined by “and”; a condition that tells them apart may be missing. Identical values can stand only once.

Assay: rat acute oral toxicity
Conditions: in vivo

Compared with `O=C(O)Cn1c(=O)n(Cc2ccc(Br)cc2F)c(=O)c2ccc(Cl)cc21`, `O=C1CN=C(c2ccccc2F)c2cc(Cl)ccc2N1CC1CC1` is 2.4-fold higher in LD50: 4250 mg/kg for the first, 10100 mg/kg for the second.

Going from `CCOP(=O)(OCC)OC(=C(Br)Br)c1ccc(Cl)cc1Cl` to `CCOP(=O)(OCC)SCSc1cc(Cl)ccc1Cl`, the LD50 falls from 78.1 mg/kg to 38 mg/kg (2.1-fold).

Compared with `Cc1c(O)cc([N+](=O)[O-])cc1[N+](=O)[O-]`, `Nc1ccc(C(=O)O)c(O)c1` is 320-fold higher in LD50: 25 mg/kg for the first, 8000 mg/kg for the second.

First: CCC(O)CO (centres undefined)
Second: CC(C)(CO)C(O)C#N (centres undefined)
The LD50 of the first is 52-fold higher: 16000 mg/kg for the first, 310 mg/kg for the second.

Going from `O=C(Nc1ccccc1)c1ccccc1I` to `CC(C(=O)Nc1cc(-c2ccccc2)nn1-c1ccccc1)N(C)C` (centres undefined), the LD50 falls from 6400 mg/kg to 815 mg/kg (7.9-fold).

Compared with `Cc1onc2c(=O)n(C)nc(-c3ccccc3)c12`, `CCc1nc(N)nc(N)c1-c1ccccc1` is 7.9-fold lower in LD50: 1000 mg/kg for the first, 126 mg/kg for the second.

Going from `C=CCN1CCC23CCCCC2C1Cc1ccc(O)cc13` (centres undefined) to `Cc1ccc2c(c1)c1c3n2CCNC3CCC1` (centres undefined), the LD50 rises from 850 mg/kg to 2060 mg/kg (2.4-fold).

Going from `Clc1nc(C(Cl)Cl)c(Cl)c(Cl)c1Cl` to `CCOP(=O)(OCC)Sc1c(Cl)c(Cl)c(Cl)c(Cl)c1Cl`, the LD50 falls from 1780 mg/kg to 925 mg/kg (1.9-fold).

Going from `COc1ccc(O)cc1` to `CC(CO)Oc1ccccc1` (centres undefined), the LD50 rises from 1600 mg/kg to 2830 mg/kg (1.8-fold).

Compared with `CCC(Cl)(Cl)Cl`, `Cc1ccccc1OCC(COC(O)C(Cl)(Cl)Cl)OC(O)C(Cl)(Cl)Cl` (centres undefined) is 8.5-fold lower in LD50: 7460 mg/kg for the first, 880 mg/kg for the second.

`CCNC(=O)Nc1ncc([N+](=O)[O-])s1` and `O=[N+]([O-])c1cncn1CCN1CCOCC1` are within 1.5-fold of each other in LD50: 2150 mg/kg for the first, 1540 mg/kg for the second.

Compared with `CN(C)CC#N`, `Cc1cccc(CN(C)N=O)c1` is 12-fold higher in LD50: 50 mg/kg for the first, 600 mg/kg for the second.

Going from `COP(=S)(OC)SCSc1cc(Cl)cc(Cl)c1` to `Nc1cc(Cl)ccc1Cl`, the LD50 rises from 443 mg/kg to 1600 mg/kg (3.6-fold).

`O=C(C=Cc1ccccn1)OCCN1CCN(c2ccc(Cl)cc2)CC1` and `O=C1CCc2cc(C=CCCN3CCN(c4ccccc4)CC3)ccc2N1` are within 1.5-fold of each other in LD50: 478 mg/kg for the first, 500 mg/kg for the second.

Compared with `O=C(CN1CCNCC1)NC1CCCCC1`, `C1CCc2nnnn2CC1` is 28-fold lower in LD50: 3900 mg/kg for the first, 140 mg/kg for the second.

Compared with `CC(C)=CCN(CC=C(C)C)CCC(C(N)=O)c1cccc2ccccc12` (centres undefined), `CCOC(=O)N(c1cccc(C(=O)c2ccccc2)c1)S(=O)(=O)C(F)(F)F` is 13-fold higher in LD50: 353 mg/kg for the first, 4700 mg/kg for the second.

Going from `CC(=O)OCCC(C)CC(C)(C)C` (centres undefined) to `CC(=O)CC(=O)OC(C)C`, the LD50 rises from 4250 mg/kg to 16200 mg/kg (3.8-fold).

Going from `CCSC(=S)N(CC)CC` to `CCCCCOc1c(Br)cc(Br)cc1COCCN(CC)CC`, the LD50 falls from 712 mg/kg to 350 mg/kg (2-fold).

`Nc1nncs1` and `NC1CCN(c2cccc(Cl)n2)CC1` are within 1.5-fold of each other in LD50: 253 mg/kg for the first, 190 mg/kg for the second.

`Cc1ccc(C(=O)CC(=O)C(F)(F)F)cc1` and `Cc1oncc1C(=O)Nc1ccc(C(F)(F)F)cc1` are within 1.5-fold of each other in LD50: 300 mg/kg for the first, 235 mg/kg for the second.

Going from `CC(=O)Oc1cccc(Oc2ccc(C(F)(F)F)cc2Cl)c1` to `FC(F)(F)c1nc2c(Br)cc(Cl)cc2[nH]1`, the LD50 falls from 2500 mg/kg to 7.18 mg/kg (350-fold).

First: O=CCCCC(O)C=O (centres undefined)
Second: O=C(O)CCCCCCI
The LD50 of the first is 7.6-fold higher: 17000 mg/kg for the first, 2240 mg/kg for the second.

Going from `ClC(Cl)=C(c1ccc(Cl)cc1)c1ccc(Cl)cc1` to `Clc1ccc(S/N=N/c2cc(Cl)c(Cl)cc2Cl)cc1`, the LD50 rises from 880 mg/kg to 4000 mg/kg (4.5-fold).

First: CC(C)NC(=S)NC(C)C
Second: CC(C=O)Cc1ccc(C(C)C)cc1 (centres undefined)
The LD50 of the first is 8.5-fold lower: 450 mg/kg for the first, 3810 mg/kg for the second.

Compared with `C=CCOC(=O)Nc1ccc(NCc2ccc(F)cc2)nc1N`, `O=C(CF)NCc1ccc(Br)cc1` is 2.5-fold lower in LD50: 1030 mg/kg for the first, 410 mg/kg for the second.

Going from `Cn1c(=O)c2c(nc(Cc3ccc(N)cc3)n2C)n(C)c1=O` to `CN(CCO)CC(O)Cn1cnc2c1c(=O)n(C)c(=O)n2C` (centres undefined), the LD50 rises from 383 mg/kg to 14100 mg/kg (37-fold).

Going from `CC1(c2ccccc2)OC(C(=O)O)=CC1=O` (centres undefined) to `CCCC1(CC(=O)O)OCCc2c1[nH]c1ccccc21` (centres undefined), the LD50 falls from 3000 mg/kg to 1420 mg/kg (2.1-fold).

Compared with `CCOC(=O)CCCCCCCCC(C)c1ccc(I)cc1` (centres undefined), `CCCCCCCCCCCCCO` is 8.2-fold higher in LD50: 2100 mg/kg for the first, 17200 mg/kg for the second.

Compared with `CCCN(CCC)C(=O)C(CCC(=O)N1CCN(CCOC(=O)Cc2c(C)n(C(=O)c3ccc(Cl)cc3)c3ccc(OC)cc23)CC1)NC(=O)c1ccccc1` (centres undefined), `C=CCOc1ccc(C2=C(c3ccccc3)C(C)(C)Oc3cc(OC)ccc32)cc1` is 1.6-fold higher in LD50: 315 mg/kg for the first, 500 mg/kg for the second.

Compared with `C=C(C)C1CC=C(C=NO)CC1` (centres undefined), `C=CCC1=C(C)[C@@H](OC(=O)[C@@H]2[C@@H](C=C(C)C)C2(C)C)CC1=O` is 5.8-fold lower in LD50: 2500 mg/kg for the first, 430 mg/kg for the second.

First: CC(C)OP(=S)(CCl)Sc1ccc(F)cc1 (centres undefined)
Second: CSC(C)=NOC(=O)N(C)SN(C)C(=O)Oc1ccc(OC(=O)N(C)SN(C)C(=O)ON=C(C)SC)cc1
The LD50 of the first is 12-fold lower: 39 mg/kg for the first, 453 mg/kg for the second.

First: CCS(=O)(=O)CCSP(=O)(OC)OC
Second: COc1c(Cl)c(Cl)c(OC)c2[nH]c(C(F)(F)F)nc12
The LD50 of the first is 3.1-fold lower: 32.4 mg/kg for the first, 100 mg/kg for the second.

Compared with `C#CCCl`, `OC/C=C/Cl` is 1.6-fold lower in LD50: 165 mg/kg for the first, 102 mg/kg for the second.

Compared with `CC=CC(C)=O`, `CC(C=CC=C(C)C=CC(=O)C1(C)CC(O)CC1(C)C)=CC=CC=C(C)C=CC=C(C)C=CC1=C(C)CC(O)CC1(C)C` (centres undefined) is 3.5-fold higher in LD50: 3200 mg/kg for the first, 11200 mg/kg for the second.

Going from `O=NN1CCCOC1` to `C=CCc1c(O)c(CN2CCN(CCO)CC2)cc2c(C)cc(=O)oc12`, the LD50 rises from 600 mg/kg to 3160 mg/kg (5.3-fold).

Compared with `O=C1C(CCS(=O)c2ccccc2)C(=O)N(c2ccccc2)N1c1ccccc1` (centres undefined), `OC[C@@H](O)[C@@H](O)[C@H](O)[C@H](O)CO` is 38-fold higher in LD50: 358 mg/kg for the first, 13500 mg/kg for the second.

In the case of `c1ccc2[nH]c(-c3cscn3)nc2c1`, the LD50 is given as 3600 mg/kg and 3100 mg/kg.
In the case of `CN(C)CCOc1ccc(/C(=C(/CCCl)c2ccccc2)c2ccccc2)cc1`, the LD50 is listed as 1700 mg/kg and 3000 mg/kg.
